Among the data in ChEMBL document CHEMBL5620439, “Talaromides A-C, Bioactive Cyclic Heptapeptides from Talaromyces siglerae Isolated from a Marine Sponge” (2024) are Activity and inhibition values, retold here.

In experiment [1] the test system is Staphylococcus aureus. In words: Antimicrobial activity against methicillin sensitive Staphylococcus aureus CCARM 0204. The experiment is classed as functional, organism-based.
The subject of another experiment is Escherichia coli. The experiment is described as follows: Antimicrobial activity against Escherichia coli 2441. The experiment is classed as functional, organism-based.
In a further experiment the test system is RAW264.7. The experiment is described as follows: Inhibition of nitric oxide production in LPS-activated mouse RAW264.7 cells. The experiment is classed as functional, cell-based.
Experiment [2] concerns Staphylococcus epidermidis. The experiment is described as follows: Antimicrobial activity against Staphylococcus epidermidis 1917. The experiment is classed as functional, organism-based.
Experiment [3] deals with Staphylococcus aureus. In words: Antimicrobial activity against methicillin sensitive Staphylococcus aureus CCARM 3090. In kind it is functional, organism-based.
In a further experiment the test system is Salmonella typhimurium. The experiment is described as follows: Antimicrobial activity against Salmonella typhimurium 2515. The experiment is classed as functional, organism-based. The conditions noted are these: Salmonella enterica subsp. enterica serovar Typhimurium.
For experiment [4], the system named is Staphylococcus aureus. The experiment is described as follows: Antimicrobial activity against methicillin sensitive Staphylococcus aureus CCARM 3635. In kind it is functional, organism-based.
The next experiment relates to Bacillus subtilis. In words: Antimicrobial activity against Bacillus subtilis 1021. In kind it is functional, organism-based.
In experiment [5] the test system is Staphylococcus aureus. The experiment is described as follows: Antimicrobial activity against methicillin sensitive Staphylococcus aureus CCARM 0205. In kind it is functional, organism-based.
The subject of experiment [6] is PANC-1. The experiment is described as follows: Cytotoxicity against human PANC-1 cells assessed as reduction in cell viability at 10 to 100 uM incubated for 72 hrs by MTT assay. In kind it is functional, cell-based. Conditions: dose 10-100 µM.
Experiment [7] concerns PANC-1. In words: Antimetastatic activity in human PANC-1 cells assessed as decrease in migration at 80 uM incubated for 48 hrs by scratch wound healing assay relative to control. In kind it is functional. On the set-up: scale not given: the % may be the effect or the level left.

The source made the active and inactive calls. The calls are words filed in the database; no cut-off is given here.

Consider `CC[C@@H](C)[C@H]1NC(=O)c2ccccc2NC(=O)[C@@H]2CCCN2C(=O)[C@@H](CC(C)C)NC(=O)[C@H](C)NC(=O)[C@H]([C@@H](C)O)NC(=O)[C@@H](Cc2ccc(O)cc2)NC1=O`, for which the outcome (with Staphylococcus aureus [1]; with Escherichia coli; in [2]; in the experiment with Staphylococcus aureus [3]; with Salmonella typhimurium; in the experiment with Staphylococcus aureus [4]) was inactive. The outcome with Bacillus subtilis, in the experiment with Staphylococcus aureus [5] and with PANC-1 [6] was inactive. For the same compound, in the experiment on RAW264.7, the inhibition result is “inactive”.

For the compound `CC[C@@H](C)[C@H]1NC(=O)[C@H](C)NC(=O)[C@H]([C@@H](C)O)NC(=O)[C@@H](Cc2ccc(O)cc2)NC(=O)[C@@H](C(C)C)NC(=O)c2ccccc2NC(=O)[C@@H]2CCCN2C1=O`, the result (in the experiment with Staphylococcus aureus [1]; with Escherichia coli; in experiment [2]; in the experiment with Staphylococcus aureus [3]; in the experiment with Salmonella typhimurium; in the experiment on Staphylococcus aureus [4]) was inactive. Besides, the outcome in the experiment on Bacillus subtilis, in the experiment on Staphylococcus aureus [5] and in the experiment with PANC-1 [6] was inactive. Besides, the inhibition result with RAW264.7 was “inactive”. In addition, the Activity in the experiment on PANC-1 [7] came out at 52%.

On to `CC[C@@H](C)[C@H]1NC(=O)c2ccccc2NC(=O)[C@@H]2CCCN2C(=O)[C@@H]([C@H](C)CC)NC(=O)[C@H](C)NC(=O)[C@H]([C@@H](C)O)NC(=O)[C@@H](Cc2ccc(O)cc2)NC1=O`, for which the outcome (in the experiment with Staphylococcus aureus [1]; in the experiment with Escherichia coli; in [2]; in the experiment on Staphylococcus aureus [3]; in the experiment on Salmonella typhimurium; in the experiment with Staphylococcus aureus [4]) was inactive. In addition, the result in the experiment on Bacillus subtilis, in the experiment with Staphylococcus aureus [5] and with PANC-1 [6] was inactive. For the same compound, the inhibition entry in the experiment on RAW264.7 is “inactive”. For the same compound, the Activity in the experiment on PANC-1 [7] came out at 48%.
